Columns and labels:
[1] = system: arterial actin-myosin interactions; test: inhibition of superprecipitation (antagonism of arterial actin-myosin interaction); assay type: biochemical; conditions: six minute time-point, mean±SEM
Method: (§1) The data reported herein was obtained at a six minute time-point rather than the 1.5, 5 and 12 minute time points indicated in the superprecipitation assay of the Silver et al. paper.
(§2) The following examples illustrate the preparation of a representative number of compounds of this invention. After each example, and Ca^+2 antagonist activity of the compound is presented in terms of percent relaxation of aortic tissue (P.R.) at 10^-5 M concentration. […] Inhibition of superprecipitation (Antag. of Actin-Myosin interaction) is expressed as percent inhibition (mean±standard error of the mean for at least 3 separate experiments) at a compound concentration. In the same manner, inhibition of myosin light chain phosphorylation (Antag. of MLCP) is expressed as a percent inhibition at a compound concentration. Similarly, the antihypertensive activity is reported in terms of millimeters mercury (mmHg) systolic blood pressure (B.P.) reduction at the stated time post 50 mg/kg oral dosing or other dosing as indicated.

[2] = system: Ca^+2 -calmodulin dependent myosin light chain phosphorylation; test: inhibition of Ca^+2-calmodulin dependent myosin light chain phosphorylation (MLCP); assay type: biochemical
Method: as §1, §2

[3] = system: spontaneously hypertensive rats; test: decrease in systolic blood pressure of spontaneously hypertensive rats; assay type: in vivo, rat

`COC(COC(=O)C1=C(C)NC2=C(C(=O)CNC2)C1c1ccccc1C(F)(F)F)c1ccccc1` (stereo not drawn) [Example 12, 1,4,5,6,7,8-Hexahydro-2-methyl-5-oxo-4-[2-(trifluoromethyl)phenyl]-1,7-naphthyridine-3-carboxylic acid 2-methoxy-2-phenylethyl ester] was tested, and the “inhibition of superprecipitation (Antag. of Actin-Myosin)” value (from here on “inhibition of superprecipitation”) ([1]; 100 μM) was 30%, the “inhibition of myosin light chain phosphorylation (Antag. of MLCP)” value (shortened to “inhibition … (Antag. of MLCP)”) ([2]; 100 μM) was 24% and the “systolic blood pressure (B.P.) reduction” value ([3]; 25 mg/kg, 1.5 hours) was -56 mmHg. The “systolic blood pressure (B.P.) reduction” value ([3]; 25 mg/kg, 4 hours) was -56 mmHg.
With `CC1=C(C(=O)OCCOc2ccccc2)C(c2ccccc2C)C2=C(CNCC2=O)N1` (stereo not drawn) [Example 15, 1,4,5,6,7,8-Hexahydro-2-methyl-4-(2-methylphenyl)-5-oxo-1,7-naphthyridine-3-carboxylic acid 2-phenoxyethyl ester] the “inhibition of superprecipitation” value ([1]; 100 μM) was 66±5%, the “inhibition … (Antag. of MLCP)” value ([2]; 100 μM) was 61±5% and the “systolic blood pressure (B.P.) reduction” value ([3]; 25 mg/kg, 1.5 hours) was -29 mmHg. The “systolic blood pressure (B.P.) reduction” value ([3]; 25 mg/kg, 4 hours) was -39 mmHg.
For `CC1=C(C(=O)OCC2COc3ccccc3O2)C(c2c(F)c(F)c(F)c(F)c2F)C2=C(CNCC2=O)N1` (stereo not drawn) [Example 14, 1,4,5,6,7,8-Hexahydro-2-methyl-5-oxo-4-(pentafluorophenyl)-1,7-naphthyridine-3-carboxylic acid 2,3-dihydro-1,4-benzodioxin-2-ylmethyl ester], the “inhibition of superprecipitation” value ([1]; 25 μM) was 65%, the “inhibition of superprecipitation” value ([1]; 100 μM) was 80% and the “inhibition … (Antag. of MLCP)” value ([2]; 25 μM) was 59%. For the same compound, the “inhibition … (Antag. of MLCP)” value ([2]; 100 μM) was 76%, the “systolic blood pressure (B.P.) reduction” value ([3]; 50 mg/kg oral, 1.5 hours) was -46 mmHg and the “systolic blood pressure (B.P.) reduction” value ([3]; 50 mg/kg oral, 4 hours) was -42 mmHg.
With `CC1=C(C(=O)OCCOc2ccccc2)C(c2c(F)ccc(Cl)c2Cl)C2=C(CNCC2=O)N1` (stereo not drawn) [Example 24, 4-(2,3-Dichloro-6-fluorophenyl)-1,4,5,6,7,8-hexahydro-2-methyl-5-oxo-1,7-naphthyridine-3-carboxylic acid 2-phenoxyethyl ester] the “inhibition of superprecipitation” value ([1]; 25 μM) was 9±2%, the “inhibition of superprecipitation” value ([1]; 50 μM) was 54±3% and the “inhibition of superprecipitation” value ([1]; 100 μM) was 72±1%. The “inhibition … (Antag. of MLCP)” value ([2]; 25 μM) was 8±2%, the “inhibition … (Antag. of MLCP)” value ([2]; 50 μM) was 50±2% and the “inhibition … (Antag. of MLCP)” value ([2]; 100 μM) was 68±1%. The “systolic blood pressure (B.P.) reduction” value ([3]; 5 mg/kg, 1.5 hours) was -17 mmHg, the “systolic blood pressure (B.P.) reduction” value ([3]; 5 mg/kg, 4 hours) was -26 mmHg and the “systolic blood pressure (B.P.) reduction” value ([3]; 10 mg/kg, 1.5 hours) was -6 mmHg. The “systolic blood pressure (B.P.) reduction” value ([3]; 10 mg/kg, 4 hours) was -26 mmHg, the “systolic blood pressure (B.P.) reduction” value ([3]; 25 mg/kg, 1.5 hours) was -50 mmHg and the “systolic blood pressure (B.P.) reduction” value ([3]; 25 mg/kg, 4 hours) was -70 mmHg.
For `COC(COC(=O)C1=C(C)NC2=C(C(=O)CNC2)C1c1cccc(Cl)c1)c1ccccc1` (stereo not drawn) [Example 11, 4-(3-Chlorophenyl)-1,4,5,6,7,8-hexahydro-2-methyl-5-oxo-1,7 naphthyridine-3-carboxylic acid 2-methoxy-2-phenylethyl ester], the “inhibition of superprecipitation” value ([1]; 100 μM) was 53%, the “inhibition … (Antag. of MLCP)” value ([2]; 100 μM) was 48% and the “systolic blood pressure (B.P.) reduction” value ([3]; 50 mg/kg oral, 1.5 hours) was -29 mmHg. For the same compound, the “systolic blood pressure (B.P.) reduction” value ([3]; 50 mg/kg oral, 4 hours) was -38 mmHg.
`CC1=C(C(=O)OCCCCOc2ccccc2)C(c2c(F)c(F)c(F)c(F)c2F)C2=C(CNCC2=O)N1` (stereo not drawn) [Example 21, 1,4,5,6,7,8-Hexahydro-2-methyl-5-oxo-4-(pentafluorophenyl)-1,7-naphthyridine-3-carboxylic acid 4-phenoxybutyl ester] was tested, and the “inhibition of superprecipitation” value ([1]; 100 μM) was 80%, the “inhibition … (Antag. of MLCP)” value ([2]; 100 μM) was 77% and the “systolic blood pressure (B.P.) reduction” value ([3]; 25 mg/kg, 1.5 hours) was 0 mmHg. For the same compound, the “systolic blood pressure (B.P.) reduction” value ([3]; 25 mg/kg, 4 hours) was -49 mmHg.
`COC(COC(=O)C1=C(C)NC2=C(C(=O)CNC2)C1c1cccc(Cl)c1Cl)c1ccccc1` (stereo not drawn) [Example 1, 4-(2,3-Dichlorophenyl)-1,4,5,6,7,8-hexahydro-2-methyl-5-oxo-1,7-naphthyridine-3-carboxylic acid 2-methoxy-2-phenylethyl ester] was tested, and the “inhibition of superprecipitation” value ([1]; 25 μM) was 43±2%, the “inhibition of superprecipitation” value ([1]; 50 μM) was 75±3% and the “inhibition of superprecipitation” value ([1]; 100 μM) was 83±3%. For the same compound, the “inhibition … (Antag. of MLCP)” value ([2]; 25 μM) was 38±3%, the “inhibition … (Antag. of MLCP)” value ([2]; 50 μM) was 66% and the “inhibition … (Antag. of MLCP)” value ([2]; 100 μM) was 76±2%. The “systolic blood pressure (B.P.) reduction” value ([3]; 50 mg/kg oral, 1.5 hours) was -53 mmHg and the “systolic blood pressure (B.P.) reduction” value ([3]; 50 mg/kg oral, 4 hours) was -30 mmHg.
`CC1=C(C(=O)OCCOc2ccccc2)C(c2c(F)c(F)c(F)c(F)c2F)C2=C(CNCC2=O)N1` (single isomer, unassigned; (-)) [Example 3, (-)-1,4,5,6,7,8-Hexahydro-2-methyl-5-oxo-4-(pentafluorophenyl)-1,7-naphthyridine-3-carboxylic acid 2-phenoxyethyl ester] was tested, and the “inhibition of superprecipitation” value ([1]; 50 μM) was 65%, the “inhibition of superprecipitation” value ([1]; 100 μM) was 76% and the “inhibition … (Antag. of MLCP)” value ([2]; 50 μM) was 57%. For the same compound, the “inhibition … (Antag. of MLCP)” value ([2]; 100 μM) was 70%.
In the case of `CC1=C(C(=O)OCC(C)(C)Oc2ccccc2)C(c2c(F)c(F)c(F)c(F)c2F)C2=C(CNCC2=O)N1.Cl` (stereo not drawn) [Example 20, 1,4,5,6,7,8-Hexahydro-2-methyl-5-oxo-4-(pentafluorophenyl)-1,7-naphthyridine-3-carboxylic acid 2-methyl-2-phenoxypropyl ester, hydrochloride], the “inhibition of superprecipitation” value ([1]; 100 μM) is reported as 67%, the “inhibition … (Antag. of MLCP)” value ([2]; 100 μM) is reported as 62% and the “systolic blood pressure (B.P.) reduction” value ([3]; 25 mg/kg, 1.5 hours) is reported as -64 mmHg. The “systolic blood pressure (B.P.) reduction” value ([3]; 25 mg/kg, 4 hours) was -41 mmHg.
`CO[C@H](COC(=O)C1=C(C)NC2=C(C(=O)CNC2)C1c1c(F)c(F)c(F)c(F)c1F)c1ccccc1` (single isomer, unassigned) [Example 8 Diastereomer B, 1,4,5,6,7,8-Hexahydro-2-methyl-5-oxo-4(R or S-pentafluorophenyl)-1,7-naphthyridine-3-carboxylic acid (S)-2-methoxy-2-phenylethyl esters] was tested, and the “inhibition of superprecipitation” value ([1]; 50 μM) was 30%, the “inhibition of superprecipitation” value ([1]; 100 μM) was 64% and the “inhibition … (Antag. of MLCP)” value ([2]; 50 μM) was 34%. For the same compound, the “inhibition … (Antag. of MLCP)” value ([2]; 100 μM) was 62%.
For `CC1=C(C(=O)OC(C)COc2ccccc2)C(c2c(F)c(F)c(F)c(F)c2F)C2=C(CNCC2=O)N1` (stereo not drawn) [Example 13, 1,4,5,6,7,8-Hexahydro-2-methyl-5-oxo-4-(pentafluorophenyl)-1,7-naphthyridine-3-carboxylic acid 1-methyl-2-phenoxyethyl ester], the “inhibition of superprecipitation” value ([1]; 25 μM) was 61%, the “inhibition of superprecipitation” value ([1]; 100 μM) was 78% and the “inhibition … (Antag. of MLCP)” value ([2]; 25 μM) was 58%. The “inhibition … (Antag. of MLCP)” value ([2]; 100 μM) was 70%, the “systolic blood pressure (B.P.) reduction” value ([3]; 50 mg/kg oral, 1.5 hours) was -35 mmHg and the “systolic blood pressure (B.P.) reduction” value ([3]; 50 mg/kg oral, 4 hours) was -60 mmHg.
In the case of `CC1=C(C(=O)OCCOc2ccccc2)C(c2c(F)c(F)c(F)c(F)c2F)C2=C(CNCC2=O)N1` (racemic) [Example 2, 1,4,5,6,7,8-Hexahydro-2-methyl-5-oxo-4-(pentafluorophenyl)-1,7-naphthyridine-3-carboxylic acid 2-phenoxyethyl ester], the “inhibition of superprecipitation” value ([1]; 25 μM) is reported as 28±2%, the “inhibition of superprecipitation” value ([1]; 50 μM) is reported as 58±4% and the “inhibition of superprecipitation” value ([1]; 100 μM) is reported as 72±2%. The “inhibition … (Antag. of MLCP)” value ([2]; 25 μM) was 24±3%, the “inhibition … (Antag. of MLCP)” value ([2]; 50 μM) was 54±4% and the “inhibition … (Antag. of MLCP)” value ([2]; 100 μM) was 69±3%. For the same compound, the “systolic blood pressure (B.P.) reduction” value ([3]; 10 mg/kg, 4 hours) was -51 mmHg.
In the case of `CO[C@@H](COC(=O)C1=C(C)NC2=C(C(=O)CNC2)C1c1c(F)c(F)c(F)c(F)c1F)c1ccccc1` (stereo partly drawn) [Example 6, 1,4,5,6,7,8-Hexahydro-2-methyl-5-oxo-4-(pentafluorophenyl)-1,7-naphthyridine-3-carboxylic acid (R)-2-methoxy-2-phenylethyl ester], the “inhibition of superprecipitation” value ([1]; 50 μM) is reported as 64%, the “inhibition of superprecipitation” value ([1]; 100 μM) is reported as 74% and the “inhibition … (Antag. of MLCP)” value ([2]; 50 μM) is reported as 56%. For the same compound, the “inhibition … (Antag. of MLCP)” value ([2]; 100 μM) was 70%, the “systolic blood pressure (B.P.) reduction” value ([3]; 10 mg/kg, 1.5 hours) was -56 mmHg and the “systolic blood pressure (B.P.) reduction” value ([3]; 10 mg/kg, 4 hours) was -49 mmHg.
`CO[C@H](COC(=O)C1=C(C)NC2=C(C(=O)CNC2)C1c1c(F)c(F)c(F)c(F)c1F)c1ccccc1` (single isomer, unassigned) [Example 8 Diastereomer A, 1,4,5,6,7,8-Hexahydro-2-methyl-5-oxo-4(R or S-pentafluorophenyl)-1,7-naphthyridine-3-carboxylic acid (S)-2-methoxy-2-phenylethyl esters] was tested, and the “inhibition of superprecipitation” value ([1]; 50 μM) was 28%, the “inhibition of superprecipitation” value ([1]; 100 μM) was 69% and the “inhibition … (Antag. of MLCP)” value ([2]; 50 μM) was 28%. For the same compound, the “inhibition … (Antag. of MLCP)” value ([2]; 100 μM) was 63%.
For `COC(COC(=O)C1=C(C)NC2=C(C(=O)CNC2)C1c1c(F)cccc1Cl)c1ccccc1` (stereo not drawn) [Example 9, 4-(2-Chloro-6-fluorophenyl)-1,4,5,6,7,8-hexahydro-2-methyl-5-oxo-1,7-naphthyridine-3-carboxylic acid 2-methoxy-2-phenylethyl ester], the “inhibition of superprecipitation” value ([1]; 100 μM) was 40%, the “inhibition … (Antag. of MLCP)” value ([2]; 100 μM) was 44% and the “systolic blood pressure (B.P.) reduction” value ([3]; 50 mg/kg oral, 1.5 hours) was -37 mmHg. The “systolic blood pressure (B.P.) reduction” value ([3]; 50 mg/kg oral, 4 hours) was -14 mmHg.

From patent publication US4596873A, “1,4,5,6,7,8-Hexahydro-2-alkyl-4-aryl-5-oxo-1,7-naphthyridine-3-carboxyl ic acid aromatic esters and pharmaceutically acceptable acid addition salts thereof useful as antihypertensive agents” (American Home Products Corporation, priority 1985, dated 1986)
